Read-outs that look alike come from different tables or passages of the source.
Key:
Type in all cases: cell-based
[1] = system: L6 rat skeletal myoblast cell line; assay: Cytotoxicity towards L6 cells; settings: read-out: IC50 L6
Method: (§1) The in vitro activities against the protozoan parasites T.b. rhodesiense, and P. falciparum and cytotoxicity assessment against L6 cells were determined as reported elsewhere.

[2] = system: Plasmodium falciparum, NF54 strain, IEF stage; assay: In vitro antimalarial activity, NF54 drug sensitive strain; settings: for Pf SI (selectivity index for P. falciparum = IC50 L6/IC50 Pf): NF54 strain vs L6
Method: as §1

[3] = system: Trypanosoma brucei rhodesiense, STIB 900 strain, trypomastigotes stage; assay: In vitro anti-trypanosomal activity (growth inhibition); settings: read-out: IC50 T. b. rhod.
Method: as §1

[4] = L6 rat skeletal myoblast cell line, average of two independent assays
[5] = Plasmodium falciparum, NF54 strain, IEF stage, average of two independent assays, read-out: IC50 P. falc.
[6] = Trypanosoma brucei, STIB 900 strain, trypomastigotes, average of two independent assays
[7] = NF54 strain, IEF stage, average of two independent assays, read-out: IC50 P. falc.

Compound | IC50 [2, 5] [µM] | IC50 [3, 6] [µM] | IC50 ([2]; Plasmodium falciparum, NF54, read-out: IC50 P. falc.) [µM] | IC50 [1, 4] [µM] | Pf SI (selectivity index for P. falciparum = IC50 L6/IC50 Pf) [2] | IC50 ([3]; Trypanosoma brucei) [µM] | IC50 [2, 7] [µM] | IC50 ([3]; STIB 900 strain, trypomastigotes, average of two independent assays) [µM] | IC50 ([1]; Rattus norvegicus, Myoblast) [µM]
Nc1nc(N)nc(Nc2ccc([As]3SCC(CO)S3)cc2)n1 (stereo not shown) [Melarsoprol, reference compound] | – | – | – | – | – | 0.005 | – | – | –
N^1,N^4-Bis(3-(2-(5-methoxy-1H-indol-3-yl)acetamido)propyl)butane-1,4-diaminium 2,2,2-trifluoroacetate [Compound 14] | – | – | – | 56 | 120 | – | 0.47 | – | –
CC(C)(C)OC(=O)N(CCCCCCCCN(CCCNC(=O)C(=O)c1c[nH]c2cc(Br)ccc12)C(=O)OC(C)(C)C)CCCNC(=O)C(=O)c1c[nH]c2cc(Br)ccc12 [Compound 7, Di-tert-butyl Octane-1,8-diylbis((3-(2-(6-bromo-1H-indol-3-yl)-2-oxoacetamido)propyl)carbamate)] | 0.27 | – | – | 92 | 340 | – | – | – | –
CCN(CC)CCCC(C)Nc1ccnc2cc(Cl)ccc12 (stereo not shown) [Chloroquine, reference compound] | – | – | 0.004 | – | – | – | – | – | –
CC(C)(C)OC(=O)N(CCCCCCCCCCCCN(CCCNC(=O)Cc1c[nH]c2ccccc12)C(=O)OC(C)(C)C)CCCNC(=O)Cc1c[nH]c2ccccc12 [Compound 35, Di-tert-butyl Dodecane-1,12-diylbis((3-(2-(1H-indol-3-yl)acetamido)propyl)carbamate)] | 0.8 | – | – | 45 | 56 | – | – | – | –
N^1,N^4-Bis(3-(2-(7-methoxy-1H-indol-3-yl)acetamido)propyl)butane-1,4-diaminium 2,2,2-trifluoroacetate [Compound 16] | – | – | – | 62 | 48 | – | 1.3 | 45 | –
COc1ccc2[nH]cc(C(=O)C(=O)NCCCN(CCCCCCCCCCCCN(CCCNC(=O)C(=O)c3c[nH]c4ccc(OC)cc34)C(=O)OC(C)(C)C)C(=O)OC(C)(C)C)c2c1 [Compound 22, Di-tert-butyl Dodecane-1,12-diylbis((3-(2-(5-methoxy-1H-indol-3-yl)-2-oxoacetamido)propyl)carbamate)] | 0.36 | 5.2 | – | 19 | 53 | – | – | – | –
COc1cccc2c(C(=O)C(=O)NCCCN(CCCCCCCCCCCCN(CCCNC(=O)C(=O)c3c[nH]c4c(OC)cccc34)C(=O)OC(C)(C)C)C(=O)OC(C)(C)C)c[nH]c12 [Compound 24, Di-tert-butyl Dodecane-1,12-diylbis((3-(2-(7-methoxy-1H-indol-3-yl)-2-oxoacetamido)propyl)carbamate)] | 1.7 | 63 | – | ≥ 110 | ≥65 | – | – | – | –
CC(C)(C)OC(=O)N(CCCCCCCCN(CCCNC(=O)Cc1c[nH]c2ccccc12)C(=O)OC(C)(C)C)CCCNC(=O)Cc1c[nH]c2ccccc12 [Compound 34, Di-tert-butyl Octane-1,8-diylbis((3-(2-(1H-indol-3-yl)acetamido)propyl)carbamate)] | 0.3 | – | – | 5 | 17 | – | – | – | –
COc1ccc2c(C(=O)C(=O)NCCCN(CCCCCCCCCCCCN(CCCNC(=O)C(=O)c3c[nH]c4cc(OC)ccc34)C(=O)OC(C)(C)C)C(=O)OC(C)(C)C)c[nH]c2c1 [Compound 23, Di-tert-butyl Dodecane-1,12-diylbis((3-(2-(6-methoxy-1H-indol-3-yl)-2-oxoacetamido)propyl)carbamate)] | 1.9 | 62 | – | ≥ 110 | ≥58 | – | – | – | –
COc1cc([C@@H]2c3cc4c(cc3[C@H](O)[C@H]3COC(=O)[C@H]23)OCO4)cc(OC)c1OC [Podophyllotoxin, reference compound] | – | – | – | – | – | – | – | – | 0.019
O=C(NCCCNCCCCCCCCNCCCNC(=O)C(=O)c1c[nH]c2cc(Br)ccc12)C(=O)c1c[nH]c2cc(Br)ccc12.O=C(O)C(F)(F)F.O=C(O)C(F)(F)F [Compound 8, N^1,N^8-Bis(3-(2-(6-bromo-1H-indol-3-yl)-2-oxoacetamido)propyl)octane-1,8-diaminium 2,2,2-trifluoroacetate] | 0.41 | – | – | 5.6 | 14 | – | – | – | –
O=C(NCCCNCCCCNCCCNC(=O)C(=O)c1c[nH]c2cc(Br)ccc12)C(=O)c1c[nH]c2cc(Br)ccc12.O=C(O)C(F)(F)F.O=C(O)C(F)(F)F [Compound 6, N^1,N^4-Bis(3-(2-(6-bromo-1H-indol-3-yl)-2-oxoacetamido)propyl)butane-1,4-diaminium 2,2,2-trifluoroacetate] | 0.36 | – | – | 7.7 | 21 | – | – | – | –
N^1,N^4-Bis(3-(2-(6-methoxy-1H-indol-3-yl)acetamido)propyl)butane-1,4-diaminium 2,2,2-trifluoroacetate [Compound 15] | – | – | – | 54 | 110 | – | 0.5 | – | –
O=C(NCCCCNCCCNC(=O)C(=O)c1c[nH]c2cc(Br)ccc12)C(=O)c1c[nH]c2cc(Br)ccc12.O=C(O)C(F)(F)F [Compound 5, 4-(2-(6-Bromo-1H-indol-3-yl)-2-oxoacetamido)-N-(3-(2-(6-bromo-1H-indol-3-yl)-2-oxoacetamido)propyl)butan-1-aminium 2,2,2-trifluoroacetate] | 0.25 | – | – | 5.5 | 22 | – | – | – | –

More lines, in order of falling IC50 [2, 5], values ahead:

IC50 [2, 5] [µM] | IC50 [3, 6] [µM] | IC50 ([2]; Plasmodium falciparum, NF54, read-out: IC50 P. falc.) [µM] | Compound | IC50 [1, 4] [µM] | Pf SI (selectivity index for P. falciparum = IC50 L6/IC50 Pf) [2] | IC50 ([3]; Trypanosoma brucei) [µM] | IC50 [2, 7] [µM] | IC50 ([3]; STIB 900 strain, trypomastigotes, average of two independent assays) [µM] | IC50 ([1]; Rattus norvegicus, Myoblast) [µM]
0.24 | 0.18 | – | COc1ccc2c(C(=O)C(=O)NCCCNCCCCCCCCCCCCNCCCNC(=O)C(=O)c3c[nH]c4cc(OC)ccc34)c[nH]c2c1.O=C(O)C(F)(F)F.O=C(O)C(F)(F)F [Compound 31, N^1,N^12-Bis(3-(2-(6-methoxy-1H-indol-3-yl)-2-oxoacetamido)propyl)dodecane-1,12-diaminium 2,2,2-trifluoroacetate] | 6 | 25 | – | – | – | –
0.2 | 0.27 | – | COc1ccc2[nH]cc(C(=O)C(=O)NCCCNCCCCCCCCCCCCNCCCNC(=O)C(=O)c3c[nH]c4ccc(OC)cc34)c2c1.O=C(O)C(F)(F)F.O=C(O)C(F)(F)F [Compound 30, N^1,N^12-Bis(3-(2-(5-methoxy-1H-indol-3-yl)-2-oxoacetamido)propyl)dodecane-1,12-diaminium 2,2,2-trifluoroacetate] | 17 | 85 | – | – | – | –
0.17 | 2.2 | – | COc1ccc2c(C(=O)C(=O)NCCCNCCCCCCCCNCCCNC(=O)C(=O)c3c[nH]c4cc(OC)ccc34)c[nH]c2c1.O=C(O)C(F)(F)F.O=C(O)C(F)(F)F [Compound 27, N^1,N^8-Bis(3-(2-(6-methoxy-1H-indol-3-yl)-2-oxoacetamido)propyl)octane-1,8-diaminium 2,2,2-trifluoroacetate] | 21 | 120 | – | – | – | –
0.15 | – | – | O=C(Cc1c[nH]c2ccccc12)NCCCNCCCCCCCCNCCCNC(=O)Cc1c[nH]c2ccccc12.O=C(O)C(F)(F)F.O=C(O)C(F)(F)F [Compound 37, N^1,N^8-Bis(3-(2-(1H-indol-3-yl)acetamido)propyl)octane-1,8-diaminium 2,2,2-trifluoroacetate] | 64 | 430 | – | – | – | –
0.13 | 6.2 | – | COc1ccc2[nH]cc(C(=O)C(=O)NCCCN(CCCCCCCCN(CCCNC(=O)C(=O)c3c[nH]c4ccc(OC)cc34)C(=O)OC(C)(C)C)C(=O)OC(C)(C)C)c2c1 [Compound 18, Di-tert-butyl Octane-1,8-diylbis((3-(2-(5-methoxy-1H-indol-3-yl)-2-oxoacetamido)propyl)carbamate)] | ≥ 120 | ≥920 | – | – | – | –
0.12 | 2.1 | – | COc1cccc2c(C(=O)C(=O)NCCCNCCCCCCCCNCCCNC(=O)C(=O)c3c[nH]c4c(OC)cccc34)c[nH]c12.O=C(O)C(F)(F)F.O=C(O)C(F)(F)F [Compound 28, N^1,N^8-Bis(3-(2-(7-methoxy-1H-indol-3-yl)-2-oxoacetamido)propyl)octane-1,8-diaminium 2,2,2-trifluoroacetate] | 6.6 | 55 | – | – | – | –
0.12 | – | – | O=C(NCCCNCCCCNCCCNC(=O)C(=O)c1c[nH]c2ccccc12)C(=O)c1c[nH]c2ccccc12.O=C(O)C(F)(F)F.O=C(O)C(F)(F)F [Compound 13, N^1,N^4-Bis(3-(2-(1H-indol-3-yl)-2-oxoacetamido)propyl)butane-1,4-diaminium 2,2,2-trifluoroacetate] | 60 | 500 | – | – | – | –
0.12 | – | – | O=C(Cc1c[nH]c2ccccc12)NCCCNCCCCCCCCCCCCNCCCNC(=O)Cc1c[nH]c2ccccc12.O=C(O)C(F)(F)F.O=C(O)C(F)(F)F [Compound 38, N^1,N^12-Bis(3-(2-(1H-indol-3-yl)acetamido)propyl)dodecane-1,12-diaminium 2,2,2-trifluoroacetate] | 19 | 160 | – | – | – | –
0.11 | 2.5 | – | O=C(NCCCNCCCCCCCCNCCCNC(=O)C(=O)c1c[nH]c2ccccc12)C(=O)c1c[nH]c2ccccc12.O=C(O)C(F)(F)F.O=C(O)C(F)(F)F [Compound 25, N^1,N^8-Bis(3-(2-(1H-indol-3-yl)-2-oxoacetamido)propyl)octane-1,8-diaminium 2,2,2-trifluoroacetate] | 19 | 170 | – | – | – | –

Reference: publication PMC4071569, “Investigation of Indolglyoxamide and Indolacetamide Analogues of Polyamines as Antimalarial and Antitrypanosomal Agents” (Marine Drugs, 2014)
